Reference: patent EP4568957B1, “SUBSTITUTED PHENYL OXOOXAZOLYL PIPERIDINE DIONE COMPOUNDS” (Bristol-Myers Squibb Company, priority 2023, dated 2025)
“And” between values parts separate entries of the source, which are not always exact repeats. Identical values can stand only once.

How the values were obtained:
Type in all cases: cell-based
[1] = molecular target: T1, IKZF3 Aiolos (Homo sapiens, UniProt Q96SW2+Q9UKT9); test: Jurkat Cellular Degradation Assay; parameters: fluorescently labelled antibodies against Helios, Ikaros and Aiolos; endogenous in cells; host or cells: Jurkat cells; settings: Jurkat cells, 24 h; for DC50: 50% reduction of protein vs DMSO alone; for IKZF3 Aiolos max % deg. observed: 100% = complete degradation
T1 sequence (Q9UKT9 whole entry): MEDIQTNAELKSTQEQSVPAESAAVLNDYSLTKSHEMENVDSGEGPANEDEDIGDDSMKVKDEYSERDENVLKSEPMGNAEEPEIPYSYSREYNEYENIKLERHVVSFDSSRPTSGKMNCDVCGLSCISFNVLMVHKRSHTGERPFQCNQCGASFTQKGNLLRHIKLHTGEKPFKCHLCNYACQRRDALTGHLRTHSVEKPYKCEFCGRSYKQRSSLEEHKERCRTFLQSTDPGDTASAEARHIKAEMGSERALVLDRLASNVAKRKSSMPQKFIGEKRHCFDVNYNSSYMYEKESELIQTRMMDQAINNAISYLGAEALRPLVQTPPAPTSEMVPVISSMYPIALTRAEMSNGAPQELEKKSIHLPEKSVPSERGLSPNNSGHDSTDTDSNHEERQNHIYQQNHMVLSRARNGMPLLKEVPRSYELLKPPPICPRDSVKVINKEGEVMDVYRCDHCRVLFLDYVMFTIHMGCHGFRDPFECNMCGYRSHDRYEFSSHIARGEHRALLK
T1 sequence (Q96SW2 whole entry): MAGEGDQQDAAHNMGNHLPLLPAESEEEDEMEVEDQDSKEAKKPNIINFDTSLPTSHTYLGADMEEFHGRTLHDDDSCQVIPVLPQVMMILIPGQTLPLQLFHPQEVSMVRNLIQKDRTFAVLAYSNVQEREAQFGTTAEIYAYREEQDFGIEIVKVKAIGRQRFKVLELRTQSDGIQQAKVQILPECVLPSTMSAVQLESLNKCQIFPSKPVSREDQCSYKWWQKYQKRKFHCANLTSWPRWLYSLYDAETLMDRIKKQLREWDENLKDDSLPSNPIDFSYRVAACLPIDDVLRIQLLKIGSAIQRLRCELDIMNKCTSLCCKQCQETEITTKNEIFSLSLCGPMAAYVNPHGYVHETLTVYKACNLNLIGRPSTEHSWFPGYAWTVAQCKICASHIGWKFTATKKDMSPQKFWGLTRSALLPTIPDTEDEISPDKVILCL
T1 sequence (Q16531 whole entry partner): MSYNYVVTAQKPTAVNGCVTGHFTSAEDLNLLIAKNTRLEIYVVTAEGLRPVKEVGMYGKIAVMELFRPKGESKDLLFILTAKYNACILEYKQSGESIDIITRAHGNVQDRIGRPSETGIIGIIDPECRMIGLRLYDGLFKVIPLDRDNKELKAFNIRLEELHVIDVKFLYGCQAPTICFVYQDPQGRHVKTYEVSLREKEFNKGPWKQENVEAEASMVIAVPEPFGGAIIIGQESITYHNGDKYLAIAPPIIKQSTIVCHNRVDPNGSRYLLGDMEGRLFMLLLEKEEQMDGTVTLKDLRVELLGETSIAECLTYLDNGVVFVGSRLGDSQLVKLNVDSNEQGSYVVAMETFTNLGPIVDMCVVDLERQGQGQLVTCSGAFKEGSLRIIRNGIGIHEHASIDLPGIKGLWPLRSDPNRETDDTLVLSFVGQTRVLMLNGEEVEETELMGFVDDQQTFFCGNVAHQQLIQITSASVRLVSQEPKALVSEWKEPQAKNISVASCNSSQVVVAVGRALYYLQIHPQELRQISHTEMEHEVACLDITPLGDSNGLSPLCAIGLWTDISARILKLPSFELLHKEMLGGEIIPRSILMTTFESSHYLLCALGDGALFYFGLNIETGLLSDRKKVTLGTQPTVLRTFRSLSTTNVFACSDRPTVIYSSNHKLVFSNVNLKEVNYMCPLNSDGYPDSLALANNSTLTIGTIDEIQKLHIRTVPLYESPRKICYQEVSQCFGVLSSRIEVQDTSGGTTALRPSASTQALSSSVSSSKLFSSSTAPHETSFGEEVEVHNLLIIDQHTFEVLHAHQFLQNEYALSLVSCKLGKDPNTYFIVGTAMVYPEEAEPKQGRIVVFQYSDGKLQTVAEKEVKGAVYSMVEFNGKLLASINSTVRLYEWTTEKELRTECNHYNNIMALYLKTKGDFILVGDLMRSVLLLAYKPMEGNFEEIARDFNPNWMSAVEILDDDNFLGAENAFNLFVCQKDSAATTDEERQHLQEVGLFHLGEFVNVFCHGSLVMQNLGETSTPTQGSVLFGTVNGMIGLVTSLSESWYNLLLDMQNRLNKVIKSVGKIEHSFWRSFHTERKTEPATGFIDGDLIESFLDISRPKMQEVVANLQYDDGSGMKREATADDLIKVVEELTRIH
Experimental: (§1) Jurkat cells were plated at 80,000 cells/well in 40 µL RPMI + 10% FBS in a 384-well cell culture plate prior to using acoustic dispensing technology for adding a compound of interest. Cell cultures were incubated for 24 h at 37 °C and 5% CO2. In order to facilitate analysis, cell cultures were spun down at 200 rpm for 5 min and the supernatant was discarded. After shaking the plate to dislodge the cell pellet, cells were resuspended in 50 µL of Fixation Buffer (eBioscience FoxP3 buffer set 00-5523-00) for 60 min at room temperature. After centrifuging and discarding the supernatant, cells were permeabilized with 50 µL of Permeabilization buffer (eBioscience FoxP3 buffer set 00-5523-00) for 10 min at room temperature. Following permeabilization, cells were spun down and the supernatant was replaced with 20 µL fluorescently labelled antibodies against Helios, Ikaros and Aiolos or corresponding Isotype controls in 1× Permeabilization buffer (Ikaros-Alexa488 [Biolegend, Cat #368408, 1:50], Helios-PE [CST, Cat #29360, 1:50]. Aiolos-Alexa647 [Biolegend, Cat #371106 Biolegend, 1:25]) and staining reactions were incubated for 1 h at room temperature while protected from light. Subsequently, 30 µL of 1× Permeabilization buffer was added prior to centrifuging the cells and discarding the supernatant. Stained cells were resuspended in 25 µL of flow cytometry staining buffer [PBS + 0.2% bovine serum albumin (BSA)] and analyzed using an Intellicyt Ique Plus flow cytometer. TABLE A-1

[2] = molecular target: T2, IKZF1 Ikaros (Homo sapiens, UniProt Q13422+Q96SW2); test: Jurkat Cellular Degradation Assay; parameters: fluorescently labelled antibodies against Helios, Ikaros and Aiolos; endogenous in cells; host or cells: Jurkat cells; settings: Jurkat cells, 24 h; for DC50: 50% reduction of protein vs DMSO alone; for IKZF1 Ikaros max % deg. observed: 100% = complete degradation
T2 sequence (Q13422 whole entry): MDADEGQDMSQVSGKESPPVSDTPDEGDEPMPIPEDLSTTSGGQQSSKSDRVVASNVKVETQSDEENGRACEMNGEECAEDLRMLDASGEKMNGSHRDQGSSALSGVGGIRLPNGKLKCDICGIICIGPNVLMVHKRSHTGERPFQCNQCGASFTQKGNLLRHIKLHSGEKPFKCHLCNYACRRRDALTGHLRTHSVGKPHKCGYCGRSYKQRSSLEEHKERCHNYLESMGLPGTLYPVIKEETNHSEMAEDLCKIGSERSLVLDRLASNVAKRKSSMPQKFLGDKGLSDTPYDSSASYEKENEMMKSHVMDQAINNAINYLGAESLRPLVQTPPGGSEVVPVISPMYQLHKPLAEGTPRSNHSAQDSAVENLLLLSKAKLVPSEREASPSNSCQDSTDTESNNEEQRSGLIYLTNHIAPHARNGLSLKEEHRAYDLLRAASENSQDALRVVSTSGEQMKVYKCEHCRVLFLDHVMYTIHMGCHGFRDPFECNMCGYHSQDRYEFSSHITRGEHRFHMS
T2 sequence (Q96SW2 whole entry): as the sequence (Q96SW2 whole entry) above
T2 sequence (Q16531 whole entry partner): as the sequence (Q16531 whole entry partner) above
Experimental: as §1

[3] = molecular target: IKZF2 Helios (Homo sapiens, UniProt Q96SW2+Q9UKS7); test: Jurkat Cellular Degradation Assay; parameters: fluorescently labelled antibodies against Helios, Ikaros and Aiolos; endogenous in cells; host or cells: Jurkat cells; settings: for DC50: 50% reduction of protein vs DMSO alone; for IKZF2** Helios max % deg. observed: Table E summary, Jurkat Cellular Degradation Assay (A-1)
Sequence of IKZF2 Helios (Q9UKS7 whole entry): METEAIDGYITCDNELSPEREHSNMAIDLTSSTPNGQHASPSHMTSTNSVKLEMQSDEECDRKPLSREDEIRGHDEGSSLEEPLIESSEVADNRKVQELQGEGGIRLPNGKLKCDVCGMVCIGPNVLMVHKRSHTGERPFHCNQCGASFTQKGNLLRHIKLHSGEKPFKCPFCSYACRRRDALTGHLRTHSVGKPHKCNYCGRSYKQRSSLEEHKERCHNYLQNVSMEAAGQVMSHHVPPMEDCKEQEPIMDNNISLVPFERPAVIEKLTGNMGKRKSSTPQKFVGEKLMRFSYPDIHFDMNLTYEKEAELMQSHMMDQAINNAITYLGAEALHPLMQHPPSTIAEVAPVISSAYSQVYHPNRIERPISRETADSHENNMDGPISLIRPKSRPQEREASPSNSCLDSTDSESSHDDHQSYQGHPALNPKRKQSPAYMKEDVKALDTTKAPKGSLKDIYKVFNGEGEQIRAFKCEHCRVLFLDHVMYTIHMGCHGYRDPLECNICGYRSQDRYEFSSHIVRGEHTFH
Sequence of IKZF2 Helios (Q96SW2 whole entry): as the sequence (Q96SW2 whole entry) above
Sequence of IKZF2 Helios (Q16531 whole entry partner): as the sequence (Q16531 whole entry partner) above
Experimental: as §1

[4] = molecular target: T1, IKZF3 Aiolos; test: Human CD8+ T Cell Reprogramming Assay (method headed Human CD8+ T Cell Degradation Assay); parameters: Foxp3-BV421, HELIOS-PE-Cy7, EOS-PE, IKAROS-PECF594, AIOLOS-AF647; endogenous in cells; host or cells: human PBMC from healthy donors (CD8+ T cells gated by flow cytometry); settings: for IKZF3* Aiolos max % deg. observed: Table E summary, Human CD8+ T Cell Reprogramming Assay (D-1); for DC50 / IKZF3 Aiolos Maximum Observed Degradation: human PBMC, CD8+ T cells, 24 hours; for DC50: vs DMSO alone
Experimental: (§2) Cryopreserved healthy donor human peripheral blood mononuclear cells (PBMC) from healthy donors were thawed and seeded at 500,000 cells/well of 96-well round bottom plates in RPMI 1640 media (Gibco) supplemented with 10% FBS, Pen/Strep (Gibco), MEM-NEAA (Gibco), and sodium pyruvate (Gibco). Cells were treated with titrated doses of compound for 24 hours at 37 °C, 5% CO2, before analyzing by flow cytometry.
(§3) For flow cytometry staining, cells were washed twice with flow cytometry staining buffer (Thermo Fisher) and incubated in Human Tru-stain Fc block (Biolegend) for 10 minutes before adding eFluor780 viability dye (Thermo Fisher) and surface marker antibody cocktail containing LD-eFluor780, CD3-BUV-395, CD4-BUV805, CD8-FITC, and CD25-BV605 for 30 minutes at 4 °C, Cells were then fixed and permeabilized by incubation with permeabilization buffer (eBioscience FoxP3 buffer set 00-5523-00) for 30 minutes at 4 °C as per the kit manufacturer's instructions. Cells were washed twice with the Perm/Wash buffer supplied in the kit as per the manufacturer's instructions and incubated overnight at 4 °C with an intracellular antibody cocktail comprised of antibodies specific for the transcription factors (i.e. , Foxp3-BV421, HELIOS-PE-Cy7, EOS-PE, IKAROS-PECF594, AIOLOS-AF647). Cells were washed twice with Perm/Wash buffer and resuspended in flow cytometry staining buffer (Thermo Fisher) prior to acquisition. Sample acquisition and analysis was performed using a BD LSRFortessa (BD Biosciences) flow cytometer. Single-stain controls for each fluorochrome were prepared using UltraComp eBead Compensation Beads (Thermo Fisher). Data were analyzed using FlowJo version 10 and GraphPad Prism Software. TABLE D-1

[5] = molecular target: T2, IKZF1 Ikaros; test: as above; parameters: Foxp3-BV421, HELIOS-PE-Cy7, EOS-PE, IKAROS-PECF594, AIOLOS-AF647; endogenous in cells; host or cells: human PBMC from healthy donors (CD8+ T cells gated by flow cytometry); settings: for IKZF1* Ikaros max % deg. observed: Table E summary, Human CD8+ T Cell Reprogramming Assay (D-1); for DC50 / IKZF1 Ikaros Maximum Observed Degradation: human PBMC, CD8+ T cells, 24 hours; for DC50: vs DMSO alone
Experimental: as §2, §3

| Compound | DC50 [1] [µM] | IKZF3 Aiolos max % deg. observed [1] | DC50 [2] [µM] | IKZF1 Ikaros max % deg. observed [2] | DC50 ([3]; Jurkat cells, 24 h) [µM] | IKZF2** Helios max % deg. observed [3] [%] | IKZF3* Aiolos max % deg. observed [4] [%] | DC50 [4] [µM] | IKZF1* Ikaros max % deg. observed [5] [%] | DC50 [5] [µM] | IKZF3 Aiolos Maximum Observed Degradation [4] [%] | IKZF1 Ikaros Maximum Observed Degradation [5] [%] | IKZF2 Helios max % deg. observed ([3]; Jurkat cells, 24 h, 100% = complete degradation) [%] |
| --- | --- | --- | --- | --- | --- | --- | --- | --- | --- | --- | --- | --- | --- |
| Cc1cc(-c2ccc(-c3cn(C4CCC(=O)NC4=O)c(=O)o3)c(F)c2)nc(N)c1NCC1CCOCC1 (centres unmarked) [Example 3, 3-(5-(4-(6-amino-4-methyl-5-(((tetrahydro-2H-pyran-4-yl)methyl)amino)pyridin-2-yl)-2-fluorophenyl)-2-oxooxazol-3(2H)-yl)piperidine-2,6-dione] | 9.49 | 48% and 54% | 5.6 | 64% and 57% | 0.036 | 92 | 67 | 0.193 | 67 | 0.181 |  |  |  |
| CO[C@H]1C[C@H](Oc2c(C)cc(-c3ccc(-c4cn(C5CCC(=O)NC5=O)c(=O)o4)c(F)c3)nc2N)C1 (relative stereo) [Example 2, trans 3-(5-(4-(6-amino-5-(3-methoxycyclobutoxy)-4-methylpyridin-2-yl)-2-fluorophenyl)-2-oxooxazol-3(2H)-yl)piperidine-2,6-dione] | 2.32 |  | 4.38 |  | 0.037 | 92 | 58 | 0.086 | 53 | 0.132 |  |  |  |
| COC1CCN(Cc2ccc(-c3ccc(-c4cn(C5CCC(=O)NC5=O)c(=O)o4)c(F)c3)nc2N)CC1 (centres unmarked) [Example 4, 3-(5-(4-(6-amino-5-((4-methoxypiperidin-1-yl)methyl)pyridin-2-yl)-2-fluorophenyl)-2-oxooxazol-3(2H)-yl)piperidine-2,6-dione] | 3.01 | 61% | 1.2 | 69% | 0.034 | 91 | 77 | 0.018 | 80 | 0.015 |  |  |  |
| CC1(C)Cc2cc(-c3ccc(-c4cn(C5CCC(=O)NC5=O)c(=O)o4)c(F)c3)nc(N)c2O1 (centres unmarked) [Example 1, 3-(5-(4-(7-amino-2,2-dimethyl-2,3-dihydrofuro[2,3-c]pyridin-5-yl)-2-fluorophenyl)-2-oxooxazol-3(2H)-yl)piperidine-2,6-dione] | 0.6 | 55% | 1.51 | 63% | 0.022 | 89 | 76 | 0.018 | 76 | 0.053 |  |  |  |
| O=C1CCC(n2cc(-c3ccc(Br)cc3F)oc2=O)C(=O)N1 (centres unmarked) [Comparative Compound B, 3-(5-(4-bromo-2-fluorophenyl)-2-oxooxazol-3(2H)-yl)piperidine-2,6-dione, reference compound] | > 10 | 25% | > 10 | 24% | > 10 | 11 | 0 | > 1 | 17 | > 1 | 0 | 17 |  |
| O=C1CCC(n2cc(-c3ccccc3)oc2=O)C(=O)N1 (centres unmarked) [Comparative Compound A, 3-(2-oxo-5-phenyloxazol-3(2H)-yl)piperidine-2,6-dione, reference compound] | > 10 | 52% | 1.52 | 70% | > 10 | 27 | 80 | 0.021 | 74 | 0.113 | 80 | 74 |  |
| Cc1cc(-c2ccc(-c3cn(C4CCC(=O)NC4=O)c(=O)o3)c(F)c2)nc(N)c1COC1CCOCC1 (centres unmarked) [Example 5, 3-(5-(4-(6-Amino-4-methyl-5-(((tetrahydro-2H-pyran-4-yl)oxy)methyl)pyridin-2-yl)-2-fluorophenyl)-2-oxooxazol-3(2H)-yl)piperidine-2,6-dione] | > 10 | 38% | 7.9 | 51% | 0.05 | 92 | 72 | 0.131 | 56 | 0.366 | 72 |  | 92 |
